The values that follow are results of earlier work, collected in patent publication US8524769B2, “Process for producing a fraction enriched up to 100% of 3-O-acetyl-11-keto-beta-boswellic acid from an extract containing a mixture of boswellic acids” (Laila Impex, priority 2002, dated 2013).

The test system of the series is 5-lipoxygenase (5-LO). The settings on record: compared among all six boswellic acids; Sailer et al., British J. Pharmacology 117, 615-618, 1996.
Sequence of 5-lipoxygenase (5-LO) (P09917 whole entry, species assumed): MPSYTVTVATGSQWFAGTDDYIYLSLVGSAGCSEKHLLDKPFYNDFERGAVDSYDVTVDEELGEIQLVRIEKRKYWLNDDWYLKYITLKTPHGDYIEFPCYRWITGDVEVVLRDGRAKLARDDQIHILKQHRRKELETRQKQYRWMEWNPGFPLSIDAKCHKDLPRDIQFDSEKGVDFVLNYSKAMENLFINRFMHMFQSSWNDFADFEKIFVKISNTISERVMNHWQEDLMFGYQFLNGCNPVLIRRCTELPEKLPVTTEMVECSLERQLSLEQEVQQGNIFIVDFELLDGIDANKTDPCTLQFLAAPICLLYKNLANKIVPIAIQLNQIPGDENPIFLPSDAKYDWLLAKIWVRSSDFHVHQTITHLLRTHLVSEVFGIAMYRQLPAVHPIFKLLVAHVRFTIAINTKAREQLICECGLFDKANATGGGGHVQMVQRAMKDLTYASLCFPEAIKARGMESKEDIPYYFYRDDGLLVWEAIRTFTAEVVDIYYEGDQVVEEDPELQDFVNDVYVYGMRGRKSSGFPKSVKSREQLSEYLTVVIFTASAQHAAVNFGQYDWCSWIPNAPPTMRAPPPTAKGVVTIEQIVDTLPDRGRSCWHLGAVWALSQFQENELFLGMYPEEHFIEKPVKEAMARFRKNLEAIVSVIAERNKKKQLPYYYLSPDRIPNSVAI

In the case of “3-O-acetyl-11-keto-β-boswellic acid [AKBA]”, the “inhibitory activity on 5-lipoxygenase” value is “most pronounced inhibitory activity”.
